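Briefly, cells in 96-well plates were exposed to five compound concentrations for 48 h, and endpoints were estimated by linear interpolation. GI50 is the concentration that inhibits growth by half. TGI is the concentration that stops growth completely.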
Columns and labels:
Test in all cases: NCI tumour cell line growth inhibition, 48 h
786-0 renal = test system: 786-0 renal
A498 renal = test system: A498 renal
A549 NSCLC = test system: A549 NSCLC
ACHN renal = test system: ACHN renal
BT-549 breast = test system: BT-549 breast
CAKI-1 renal = test system: CAKI-1 renal
CCRF-CEM leukemia = test system: CCRF-CEM leukemia
COLO 205 colon = test system: COLO 205 colon
DU-145 prostate = test system: DU-145 prostate
EKVX NSCLC = test system: EKVX NSCLC
HCC-2998 colon = test system: HCC-2998 colon
HCT-116 colon = test system: HCT-116 colon
HCT-15 colon = test system: HCT-15 colon
HL-60(TB) leukemia = test system: HL-60(TB) leukemia
HOP-62 NSCLC = test system: HOP-62 NSCLC
HOP-92 NSCLC = test system: HOP-92 NSCLC
HS 578T breast = test system: HS 578T breast
HT29 colon = test system: HT29 colon
IGROV1 ovarian = test system: IGROV1 ovarian
K-562 leukemia = test system: K-562 leukemia
KM12 colon = test system: KM12 colon
LOX IMVI melanoma = test system: LOX IMVI melanoma
M14 melanoma = test system: M14 melanoma
MALME-3M melanoma = test system: MALME-3M melanoma
MCF7 breast = test system: MCF7 breast
MDA-MB-231 breast = test system: MDA-MB-231 breast
MDA-MB-435 = test system: MDA-MB-435
MOLT-4 leukemia = test system: MOLT-4 leukemia
NCI-H226 lung = test system: NCI-H226 lung
NCI-H23 lung = test system: NCI-H23 lung
NCI-H460 lung = test system: NCI-H460 lung
NCI-H522 lung = test system: NCI-H522 lung
NCI/ADR-RES ovarian = test system: NCI/ADR-RES ovarian
OVCAR-3 ovarian = test system: OVCAR-3 ovarian
OVCAR-4 ovarian = test system: OVCAR-4 ovarian
OVCAR-5 ovarian = test system: OVCAR-5 ovarian
OVCAR-8 ovarian = test system: OVCAR-8 ovarian
PC-3 prostate = test system: PC-3 prostate
RPMI-8226 leukemia = test system: RPMI-8226 leukemia
RXF 393 renal = test system: RXF 393 renal
SF-268 CNS = test system: SF-268 CNS
SF-295 CNS = test system: SF-295 CNS
SF-539 CNS = test system: SF-539 CNS
SK-MEL-2 melanoma = test system: SK-MEL-2 melanoma
SK-MEL-28 melanoma = test system: SK-MEL-28 melanoma
SK-MEL-5 melanoma = test system: SK-MEL-5 melanoma
SK-OV-3 ovarian = test system: SK-OV-3 ovarian
SN12C renal = test system: SN12C renal
SNB-19 CNS = test system: SNB-19 CNS
SNB-75 CNS = test system: SNB-75 CNS
SR leukemia = test system: SR leukemia
SW-620 colon = test system: SW-620 colon
T-47D breast = test system: T-47D breast
TK-10 renal = test system: TK-10 renal
U251 CNS = test system: U251 CNS
UACC-257 melanoma = test system: UACC-257 melanoma
UACC-62 melanoma = test system: UACC-62 melanoma
UO-31 renal = test system: UO-31 renal

`ClC1=C(Cl)C(Cl)(C2(Cl)C(Cl)=C(Cl)C(Cl)=C2Cl)C(Cl)=C1Cl` gave a GI50 (786-0 renal) of 242 nM, a TGI (786-0 renal) of 746 nM and a GI50 (A498 renal) of 1710 nM. For the same compound, the TGI (A498 renal) was 3190 nM, the GI50 (A549 NSCLC) was 1870 nM and the TGI (A549 NSCLC) was 4160 nM. For the same compound, the GI50 (ACHN renal) was 165 nM, the TGI (ACHN renal) was 312 nM and the GI50 (BT-549 breast) was 1680 nM. For the same compound, the TGI (BT-549 breast) was 3670 nM, the GI50 (CAKI-1 renal) was 265 nM and the TGI (CAKI-1 renal) was 832 nM. The GI50 (CCRF-CEM leukemia) was 166 nM, the TGI (CCRF-CEM leukemia) was 496 nM and the GI50 (COLO 205 colon) was 202 nM. The TGI (COLO 205 colon) was 462 nM, the GI50 (DU-145 prostate) was 633 nM and the TGI (DU-145 prostate) was 1990 nM. It also gave a GI50 (EKVX NSCLC) of 1520 nM, a TGI (EKVX NSCLC) of 3880 nM and a GI50 (HCC-2998 colon) of 2130 nM. For the same compound, the TGI (HCC-2998 colon) was 4000 nM, the GI50 (HCT-116 colon) was 189 nM and the TGI (HCT-116 colon) was 439 nM. For the same compound, the GI50 (HCT-15 colon) was 214 nM, the TGI (HCT-15 colon) was 552 nM and the GI50 (HL-60(TB) leukemia) was 206 nM. It also gave a TGI (HL-60(TB) leukemia) of 549 nM, a GI50 (HOP-62 NSCLC) of 2210 nM and a TGI (HOP-62 NSCLC) of 4560 nM. For the same compound, the GI50 (HOP-92 NSCLC) was 175 nM, the TGI (HOP-92 NSCLC) was 437 nM and the GI50 (HS 578T breast) was 2220 nM. The TGI (HS 578T breast) was 6430 nM, the GI50 (HT29 colon) was 242 nM and the TGI (HT29 colon) was 617 nM. It also gave a GI50 (IGROV1 ovarian) of 1480 nM, a TGI (IGROV1 ovarian) of 3160 nM and a GI50 (K-562 leukemia) of 226 nM. It also gave a TGI (K-562 leukemia) greater than 100000 nM, a GI50 (KM12 colon) of 2040 nM and a TGI (KM12 colon) of 4320 nM. For the same compound, the GI50 (LOX IMVI melanoma) was 206 nM, the TGI (LOX IMVI melanoma) was 487 nM and the GI50 (M14 melanoma) was 252 nM. For the same compound, the TGI (M14 melanoma) was 716 nM, the GI50 (MALME-3M melanoma) was 188 nM and the TGI (MALME-3M melanoma) was 446 nM. It also gave a GI50 (MCF7 breast) of 241 nM, a TGI (MCF7 breast) of 921 nM and a GI50 (MDA-MB-231 breast) of 383 nM. It also gave a TGI (MDA-MB-231 breast) of 1420 nM, a GI50 (MDA-MB-435) of 670 nM and a TGI (MDA-MB-435) of 2130 nM. For the same compound, the GI50 (MOLT-4 leukemia) was 242 nM, the TGI (MOLT-4 leukemia) was 2310 nM and the GI50 (NCI-H226 lung) was 296 nM. For the same compound, the TGI (NCI-H226 lung) was 2740 nM, the GI50 (NCI-H23 lung) was 865 nM and the TGI (NCI-H23 lung) was 3100 nM. For the same compound, the GI50 (NCI-H460 lung) was 1890 nM, the TGI (NCI-H460 lung) was 3800 nM and the GI50 (NCI-H522 lung) was 160 nM. It also gave a TGI (NCI-H522 lung) of 341 nM, a GI50 (NCI/ADR-RES ovarian) of 976 nM and a TGI (NCI/ADR-RES ovarian) of 5610 nM. The GI50 (OVCAR-3 ovarian) was 199 nM, the TGI (OVCAR-3 ovarian) was 417 nM and the GI50 (OVCAR-4 ovarian) was 200 nM. For the same compound, the TGI (OVCAR-4 ovarian) was 509 nM, the GI50 (OVCAR-5 ovarian) was 1220 nM and the TGI (OVCAR-5 ovarian) was 2760 nM. For the same compound, the GI50 (OVCAR-8 ovarian) was 365 nM, the TGI (OVCAR-8 ovarian) was 3790 nM and the GI50 (PC-3 prostate) was 975 nM. The TGI (PC-3 prostate) was 2950 nM, the GI50 (RPMI-8226 leukemia) was 252 nM and the TGI (RPMI-8226 leukemia) was 696 nM. It also gave a GI50 (RXF 393 renal) of 186 nM, a TGI (RXF 393 renal) of 396 nM and a GI50 (SF-268 CNS) of 1280 nM. For the same compound, the TGI (SF-268 CNS) was 4050 nM, the GI50 (SF-295 CNS) was 2050 nM and the TGI (SF-295 CNS) was 4140 nM. It also gave a GI50 (SF-539 CNS) of 1740 nM, a TGI (SF-539 CNS) of 3660 nM and a GI50 (SK-MEL-2 melanoma) of 1290 nM. The TGI (SK-MEL-2 melanoma) was 3140 nM, the GI50 (SK-MEL-28 melanoma) was 279 nM and the TGI (SK-MEL-28 melanoma) was 847 nM. It also gave a GI50 (SK-MEL-5 melanoma) of 1270 nM, a TGI (SK-MEL-5 melanoma) of 2730 nM and a GI50 (SK-OV-3 ovarian) of 2260 nM. The TGI (SK-OV-3 ovarian) was 4540 nM, the GI50 (SN12C renal) was 1320 nM and the TGI (SN12C renal) was 3800 nM. For the same compound, the GI50 (SNB-19 CNS) was 1790 nM, the TGI (SNB-19 CNS) was 3330 nM and the GI50 (SNB-75 CNS) was 1630 nM. The TGI (SNB-75 CNS) was 4460 nM, the GI50 (SR leukemia) was 272 nM and the TGI (SR leukemia) was 1520 nM. It also gave a GI50 (SW-620 colon) of 190 nM, a TGI (SW-620 colon) of 391 nM and a GI50 (T-47D breast) of 184 nM. It also gave a TGI (T-47D breast) of 539 nM, a GI50 (TK-10 renal) of 201 nM and a TGI (TK-10 renal) of 462 nM. It also gave a GI50 (U251 CNS) of 1510 nM, a TGI (U251 CNS) of 6910 nM and a GI50 (UACC-257 melanoma) of 543 nM. It also gave a TGI (UACC-257 melanoma) of 1840 nM, a GI50 (UACC-62 melanoma) of 430 nM and a TGI (UACC-62 melanoma) of 1610 nM. It also gave a GI50 (UO-31 renal) of 170 nM and a TGI (UO-31 renal) of 445 nM.
